Experimental data as given in paper PMC10991534, “The redox-sensitive R-loop of the carbon control protein SbtB contributes to the regulation of the cyanobacterial CCM” (Scientific Reports, 2024).

Tests used:
Test in all cases: ITC, one set of sites model
[1] = target: T1, SbtB-Δ104 (Synechocystis sp. PCC 6803, UniProt P73954); type: binding
T1 construct: gene slr1513; C-terminal R-loop truncated, StrepII-tagged, recombinant, trimer

[2] = target: T2, SbtB (Synechocystis sp. PCC 6803, UniProt P73954); conditions: WT oxidized R-loop; re-calculated here from the group's earlier ITC data (ref 11) with single binding model; cited from earlier work
T2 construct: gene slr1513; R-loop Cys105-Cys110
T2 sequence (P73954 whole entry): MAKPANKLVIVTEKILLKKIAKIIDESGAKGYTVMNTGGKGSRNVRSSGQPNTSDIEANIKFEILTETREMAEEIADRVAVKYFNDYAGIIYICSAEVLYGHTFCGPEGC

[3] = target: T3, SbtB (Synechocystis sp. PCC 6803, UniProt P73954, C105A/C110A); type: binding
T3 construct: gene slr1513; R-loop Cys105-Cys110
T3 sequence (P73954 whole entry C105A/C110A): as the sequence (P73954 whole entry) above, with C105A, C110A counted along it

[4] = target: T4, SbtB (Synechocystis sp. PCC 6803, UniProt P73954, C105S); type: binding
T4 construct: gene slr1513; R-loop Cys105-Cys110
T4 sequence (P73954 whole entry C105S): as the sequence (P73954 whole entry) above, with C105S counted along it

[5] = target: T5, SbtB (Synechocystis sp. PCC 6803, UniProt P73954, C105S/C110S); type: binding
T5 construct: gene slr1513; R-loop Cys105-Cys110
T5 sequence (P73954 whole entry C105S/C110S): as the sequence (P73954 whole entry) above, with C105S, C110S counted along it

[6] = target: T6, SbtB (Synechocystis sp. PCC 6803, UniProt P73954, C110S); type: binding
T6 construct: gene slr1513; R-loop Cys105-Cys110
T6 sequence (P73954 whole entry C110S): as the sequence (P73954 whole entry) above, with C110S counted along it

[7] = target: T7, SbtB-Δ109 (Synechocystis sp. PCC 6803, UniProt P73954); type: binding
T7 construct: gene slr1513; last residue Cys110 deleted, StrepII-tagged, recombinant, trimer
T7 sequence (P73954 1-109, stated change not applied): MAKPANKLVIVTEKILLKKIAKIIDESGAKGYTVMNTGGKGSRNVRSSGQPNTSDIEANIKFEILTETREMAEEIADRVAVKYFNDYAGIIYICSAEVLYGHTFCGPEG

T1 sequence (P73954 1-104, stated change not applied): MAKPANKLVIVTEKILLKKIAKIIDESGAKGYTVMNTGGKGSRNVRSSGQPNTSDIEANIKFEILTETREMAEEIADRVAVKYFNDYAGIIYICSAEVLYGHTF

Row | Kd [1] | Kd [3] | Kd [4] | Kd [5] | Kd [6] | Kd [7] | SMILES | Kd [2]
1 | 79.2 ± 55.1 µM |  |  |  |  |  | Nc1ncnc2c1ncn2[C@@H]1O[C@H](COP(=O)(O)OP(=O)(O)O)[C@@H](O)[C@H]1O [ADP] | 55.8 ± 7.7 µM
2 | 78.2 ± 6 µM |  |  |  |  |  | Nc1ncnc2c1ncn2[C@@H]1O[C@H](COP(=O)(O)O)[C@@H](O)[C@H]1O [AMP] | 87.4 ± 3.7 µM
3 | 35 ± 7.1 µM | 29.8 ± 14.1 µM | 40.5 ± 75.9 µM | 47.6 ± 21.3 µM | 60.1 ± 6.7 µM | 32.5 ± 17.9 µM | Nc1ncnc2c1ncn2[C@@H]1O[C@H](COP(=O)(O)OP(=O)(O)OP(=O)(O)O)[C@@H](O)[C@H]1O [ATP] | 62.5 ± 16.6 µM
